The experiment concerns the target T1, recombinant human BCAT1 (Homo sapiens, UniProt P54687).
T1 construct: purchased Abcam
T1 sequence (P54687 1-386): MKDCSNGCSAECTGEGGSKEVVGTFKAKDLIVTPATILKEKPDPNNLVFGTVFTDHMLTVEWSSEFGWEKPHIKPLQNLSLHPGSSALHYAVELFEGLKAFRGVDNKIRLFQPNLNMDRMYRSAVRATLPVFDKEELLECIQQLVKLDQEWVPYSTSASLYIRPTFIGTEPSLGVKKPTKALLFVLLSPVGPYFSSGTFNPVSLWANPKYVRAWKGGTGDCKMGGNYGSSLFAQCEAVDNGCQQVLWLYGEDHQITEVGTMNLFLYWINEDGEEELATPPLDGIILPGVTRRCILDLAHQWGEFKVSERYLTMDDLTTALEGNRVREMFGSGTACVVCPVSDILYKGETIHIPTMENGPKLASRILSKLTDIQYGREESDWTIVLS
Put plainly: BCAT1 aminotransferase enzymatic assay (continuous fluorometric). Type of experiment: biochemical. To be noted: 100 ng recombinant protein. An excerpt:
To gain more insights into the role of BCAT enzymes in macrophages, we set out to investigate these in human monocyte-derived macrophages (hMDMs) by subjecting these cells to RNA-sequencing (Fig. 1a). […] To examine the role of BCAT1 in macrophage metabolism and inflammatory diseases, we identified a novel BCAT1 inhibitor, ERG240, using molecular modelling approaches based on the X-ray crystal structures of BCAT1 (ref. [22]). ERG240 is a water-soluble structural analogue of leucine (Fig. 1b). Its ability to suppress the BCAT1 aminotransferase activity was measured in a continuous fluorometric assay (ref. [23] and see Supplementary Methods). […]
Figure 1 BCAT1 expression and inhibition in human macrophages. […] (d) Relative expression of IRG1, HIF1A and IL1B measured by qRT-PCR in control, ERG240-treated (20 mM, 3 h), LPS treated (100 ng ml^−1, 3 h), and LPS+ERG240 treated (LPS, 100 ng ml^−1; ERG240, 20 mM for 3 h) hMDMs. ns, non-significant. […]
Finall y, th e libraries were size selected using AM Pure XP Beads (Beckman Coulter) purified and their quality was checked using Agilent 2100 Bioanalyzer. Samples were randomized to avoid batch effects and multiplexed libraries wer e run on a single lan e (6 samples/lane) of the HiSeq 2500 platform (Illumina) to generate 100bp paired-end reads. […]
respectivel y. RNA-seq reads were aligned to human (hg19) or mouse (mm10) reference genomes using tophat2. […]

For orientation: IC50 means the concentration at which inhibition is half-maximal. Regarding `CC(=O)C(C)CCC(=O)O` (stereo not shown) [ERG240], the IC50 was 0.1 to 1 nM.

Source of the values: paper PMC5510229, “BCAT1 controls metabolic reprogramming in activated human macrophages and is associated with inflammatory diseases” (Nature Communications, 2017).
